The source of these data is US20210380556A1, “HETEROARYLAZOLE COMPOUND AND PEST CONTROL AGENT” (Nippon Soda Co., Ltd., priority 2018, published 2021).

This test concerns Mythimna separata. Kind of test: Test Example 1: efficacy on Mythimna separata (treated artificial feed). It is filed as in vivo. The conditions noted are these: 1 μl of emulsion (I) (5% active ingredient) in 0.8 g artificial feed; second instar larvae; 25° C.; fifth day. An excerpt:
5 parts of the heteroaryl azole compound of the present invention, 93.6 parts of dimethylformamide, and 1.4 parts of polyoxyethylene alkyl aryl ether were mixed and dissolved to prepare emulsion (I) containing 5% of the active ingredient.
For a control, 98.5 parts of dimethylformamide and 1.5 parts of polyoxyethylene alkyl aryl ether were mixed and dissolved to prepare emulsion (II).
Insecticidal rate (%)=(The number of dead insects/The number of tested insects)×100
0.8 g of commercially available artificial feed (Insecta LFS, manufactured by Nosan Corp.) and 1 μl of the emulsion (I) were well mixed to obtain test feed.
A plastic test container (capacity: 1.4 ml) was packed with 0.2 g of the test feed per treatment plot. Then, two second instar larvae of Mythimna separata were inoculated to each treatment plot. A plastic lid was put on the test container so as to prevent escape of the second instar larvae of Mythimna separata. The container was placed in a thermostat chamber of 25° C. On the fifth day, the insecticidal rate and the food intake were examined. The test was conducted in duplicate.
The insecticidal rate and the food intake of a control plot were examined in the same way as in Test Example 1 except that the emulsion (I) was changed to the emulsion (II).
As to `CCS(=O)(=O)c1cnc(N)nc1-c1ncc(C(F)(F)C(F)(F)C(F)(F)C(F)(F)F)n1C` [a-8], the “insecticidal rate or food intake as compared with the control plot” value was “insecticidal rate of 100% for Mythimna separata or a food intake of 10% or less”.

Turning to `CCS(=O)(=O)c1cnc(OC)nc1-c1ncc(C(F)(F)C(F)(F)C(F)(F)C(F)(F)F)n1C` [a-9], the “insecticidal rate or food intake as compared with the control plot” value is “insecticidal rate of 100% for Mythimna separata or a food intake of 10% or less”.

`CCS(=O)(=O)c1cc(C2CC2)cnc1-c1ncc(C(F)(F)C(F)(F)C(F)(F)C(F)(F)F)n1C` [b-1]: the “insecticidal rate or food intake as compared with the control plot” value was “insecticidal rate of 100% for Mythimna separata or a food intake of 10% or less”.

With `CCSc1cccnc1-c1ncc(C(F)(F)C(F)(F)C(F)(F)C(F)(F)F)n1C` [b-2], the “insecticidal rate or food intake as compared with the control plot” value was “insecticidal rate of 100% for Mythimna separata or a food intake of 10% or less”.

Take `CCS(=O)(=O)c1cccnc1-c1ncc(C(F)(F)C(F)(F)C(F)(F)C(F)(F)F)n1C` [b-3]: the “insecticidal rate or food intake as compared with the control plot” value is “insecticidal rate of 100% for Mythimna separata or a food intake of 10% or less”.

For the compound `CCS(=O)(=O)c1cc(C(F)(F)F)cnc1-c1ncc(C(F)(F)C(F)(F)C(F)(F)C(F)(F)F)n1C` [b-7], the “insecticidal rate or food intake as compared with the control plot” value is “insecticidal rate of 100% for Mythimna separata or a food intake of 10% or less”.

Take `CCS(=O)(=O)c1ccc(-n2cncn2)nc1-c1ncc(C(F)(F)C(F)(F)C(F)(F)C(F)(F)F)n1C` [b-8]: the “insecticidal rate or food intake as compared with the control plot” value was “insecticidal rate of 100% for Mythimna separata or a food intake of 10% or less”.

As for `CCS(=O)(=O)c1ccc(-c2ncccn2)nc1-c1ncc(C(F)(F)C(F)(F)C(F)(F)C(F)(F)F)n1C` [b-9], the “insecticidal rate or food intake as compared with the control plot” value is “insecticidal rate of 100% for Mythimna separata or a food intake of 10% or less”.

In the case of `CCS(=O)(=O)c1ccc(-n2cncn2)nc1-c1ncc(C(F)C(F)(F)C(F)(F)C(F)(F)C(F)(F)F)n1C` (stereo not shown) [b-10], the “insecticidal rate or food intake as compared with the control plot” value is on record as “insecticidal rate of 100% for Mythimna separata or a food intake of 10% or less”.

For `CCS(=O)(=O)c1cccnc1-c1ncc(C(F)C(F)(F)C(F)(F)C(F)(F)C(F)(F)F)n1C` (stereo not shown) [b-11], the “insecticidal rate or food intake as compared with the control plot” value was “insecticidal rate of 100% for Mythimna separata or a food intake of 10% or less”.

For `CCS(=O)(=O)c1ccc(N)nc1-c1ncc(C(F)(F)C(F)(F)C(F)(F)C(F)(F)F)n1C` [b-12], the “insecticidal rate or food intake as compared with the control plot” value is “insecticidal rate of 100% for Mythimna separata or a food intake of 10% or less”.

As for `CCS(=O)(=O)c1ccc(-n2cncn2)nc1-c1ncc(C(Cl)C(F)(F)C(F)(F)C(F)(F)C(F)(F)F)n1C` (stereo not shown) [b-13], the “insecticidal rate or food intake as compared with the control plot” value is recorded as “insecticidal rate of 100% for Mythimna separata or a food intake of 10% or less”.

Consider `CCS(=O)(=O)c1cc(C(F)(F)F)cnc1-c1ncc(C(F)(F)C(F)(F)C(F)(F)F)n1C` [b-15], for which the “insecticidal rate or food intake as compared with the control plot” value was “insecticidal rate of 100% for Mythimna separata or a food intake of 10% or less”.

For `CCS(=O)(=O)c1ccc(-n2cncn2)nc1-c1ncc(C(F)(F)C(F)(F)C(F)(F)F)n1C` [b-16], the “insecticidal rate or food intake as compared with the control plot” value is on record as “insecticidal rate of 100% for Mythimna separata or a food intake of 10% or less”.

Regarding `CCS(=O)(=O)c1ccc(-n2cncn2)nc1-c1ncc(C(F)(F)C(F)(F)F)n1C` [b-17], the “insecticidal rate or food intake as compared with the control plot” value is on record as “insecticidal rate of 100% for Mythimna separata or a food intake of 10% or less”.

Take `CCS(=O)(=O)c1cc(C2CC2)cnc1-c1ncc(C(F)C(F)(F)C(F)(F)C(F)(F)F)n1C` (stereo not shown) [b-18]: the “insecticidal rate or food intake as compared with the control plot” value is recorded as “insecticidal rate of 100% for Mythimna separata or a food intake of 10% or less”.

For the compound `CCS(=O)(=O)c1cc(C2CC2)cnc1-c1ncc(C(F)(F)C(F)(F)C(F)(F)F)n1C` [b-20], the “insecticidal rate or food intake as compared with the control plot” value is “insecticidal rate of 100% for Mythimna separata or a food intake of 10% or less”.

For `CCS(=O)(=O)c1cc(-c2ncccn2)cnc1-c1ncc(C(F)(F)C(F)(F)F)n1C` [b-22], the “insecticidal rate or food intake as compared with the control plot” value was “insecticidal rate of 100% for Mythimna separata or a food intake of 10% or less”.

With `CCS(=O)(=O)c1cc(Br)cnc1-c1ncc(C(F)C(F)(F)C(F)(F)F)n1C` (stereo not shown) [b-23], the “insecticidal rate or food intake as compared with the control plot” value is recorded as “insecticidal rate of 100% for Mythimna separata or a food intake of 10% or less”.

As for `CCS(=O)(=O)c1cc(-c2ncccn2)cnc1-c1ncc(C(F)C(F)(F)C(F)(F)F)n1C` (stereo not shown) [b-24], the “insecticidal rate or food intake as compared with the control plot” value is “insecticidal rate of 100% for Mythimna separata or a food intake of 10% or less”.

Take `CCS(=O)(=O)c1cc(C2CC2)cnc1-c1ncc(C(F)C(F)(F)C(F)(F)F)n1C` (stereo not shown) [b-25]: the “insecticidal rate or food intake as compared with the control plot” value is on record as “insecticidal rate of 100% for Mythimna separata or a food intake of 10% or less”.

As to `CCS(=O)(=O)c1cc(C2CC2)cnc1-c1ncc(C(F)(F)C(F)(F)F)n1C` [b-26], the “insecticidal rate or food intake as compared with the control plot” value is listed as “insecticidal rate of 100% for Mythimna separata or a food intake of 10% or less”.

For `CCS(=O)(=O)c1cc(-c2ccccn2)cnc1-c1ncc(C(F)C(F)(F)C(F)(F)F)n1C` (stereo not shown) [b-27], the “insecticidal rate or food intake as compared with the control plot” value is recorded as “insecticidal rate of 100% for Mythimna separata or a food intake of 10% or less”.

In the case of `CCS(=O)(=O)c1cc(-c2ccccn2)cnc1-c1ncc(C(F)(F)C(F)(F)C(F)(F)F)n1C` [b-29], the “insecticidal rate or food intake as compared with the control plot” value is on record as “insecticidal rate of 100% for Mythimna separata or a food intake of 10% or less”.

Regarding `CCS(=O)(=O)c1cc(-c2ncccn2)cnc1-c1ncc(C(Cl)C(F)(F)C(F)(F)F)n1C` (stereo not shown) [b-32], the “insecticidal rate or food intake as compared with the control plot” value was “insecticidal rate of 100% for Mythimna separata or a food intake of 10% or less”.

As to `CCS(=O)(=O)c1cc(-c2cc(F)cc(F)c2)cnc1-c1ncc(C(F)C(F)(F)C(F)(F)F)n1C` (stereo not shown) [b-34], the “insecticidal rate or food intake as compared with the control plot” value was “insecticidal rate of 100% for Mythimna separata or a food intake of 10% or less”.

Consider `CCS(=O)(=O)c1cc(-c2cncnc2)cnc1-c1ncc(C(F)C(F)(F)C(F)(F)F)n1C` (stereo not shown) [b-35], for which the “insecticidal rate or food intake as compared with the control plot” value is “insecticidal rate of 100% for Mythimna separata or a food intake of 10% or less”.

As to `CCS(=O)(=O)c1cc(-n2ccc(C(F)(F)F)n2)cnc1-c1ncc(C(F)(F)C(F)(F)C(F)(F)F)n1C` [b-36], the “insecticidal rate or food intake as compared with the control plot” value is listed as “insecticidal rate of 100% for Mythimna separata or a food intake of 10% or less”.

With `C=Cc1cnc(-c2ncc(C(F)C(F)(F)C(F)(F)F)n2C)c(S(=O)(=O)CC)c1` (stereo not shown) [b-39], the “insecticidal rate or food intake as compared with the control plot” value was “insecticidal rate of 100% for Mythimna separata or a food intake of 10% or less”.

Take `CCS(=O)(=O)c1cc(NC(=O)C2CC2)cnc1-c1ncc(C(F)(F)C(F)(F)C(F)(F)F)n1C` [b-41]: the “insecticidal rate or food intake as compared with the control plot” value is “insecticidal rate of 100% for Mythimna separata or a food intake of 10% or less”.

As to `CCS(=O)(=O)c1cc(C(C)(C)C#N)cnc1-c1ncc(C(F)(F)C(F)(F)C(F)(F)F)n1C` [b-42], the “insecticidal rate or food intake as compared with the control plot” value is on record as “insecticidal rate of 100% for Mythimna separata or a food intake of 10% or less”.

As for `CCS(=O)(=O)c1cc(-c2ccccn2)cnc1-c1ncc(C(F)C(F)(C(F)(F)F)C(F)(F)F)n1C` (stereo not shown) [b-43], the “insecticidal rate or food intake as compared with the control plot” value was “insecticidal rate of 100% for Mythimna separata or a food intake of 10% or less”.

For the compound `CCS(=O)(=O)c1cc(-c2ccccn2)cnc1-c1ncc(C(Cl)C(F)(C(F)(F)F)C(F)(F)F)n1C` (stereo not shown) [b-44], the “insecticidal rate or food intake as compared with the control plot” value was “insecticidal rate of 100% for Mythimna separata or a food intake of 10% or less”.

On to `CCS(=O)(=O)c1cc(-n2cncn2)cnc1-c1ncc(C(F)(F)C(F)(F)C(F)(F)F)n1C` [b-45], for which the “insecticidal rate or food intake as compared with the control plot” value is on record as “insecticidal rate of 100% for Mythimna separata or a food intake of 10% or less”.

Consider `CCS(=O)(=O)c1cc(C2CC2)cnc1-c1ncc(C(F)C(F)(C(F)(F)F)C(F)(F)F)n1C` (stereo not shown) [b-52], for which the “insecticidal rate or food intake as compared with the control plot” value is on record as “insecticidal rate of 100% for Mythimna separata or a food intake of 10% or less”.

For the compound `CCS(=O)(=O)c1cc(C2CC2)cnc1-c1ncc(C(Cl)C(F)(C(F)(F)F)C(F)(F)F)n1C` (stereo not shown) [b-53], the “insecticidal rate or food intake as compared with the control plot” value is “insecticidal rate of 100% for Mythimna separata or a food intake of 10% or less”.

With `CCS(=O)(=O)c1cc(-c2ncccc2C#N)cnc1-c1ncc(C(F)(F)C(F)(F)C(F)(F)F)n1C` [b-54], the “insecticidal rate or food intake as compared with the control plot” value is “insecticidal rate of 100% for Mythimna separata or a food intake of 10% or less”.

As to `CCS(=O)(=O)c1cc(-c2ncccc2F)cnc1-c1ncc(C(F)(F)C(F)(F)C(F)(F)F)n1C` [b-55], the “insecticidal rate or food intake as compared with the control plot” value was “insecticidal rate of 100% for Mythimna separata or a food intake of 10% or less”.

As to `CCS(=O)(=O)c1cc(C2(c3ccccn3)CC2)cnc1-c1ncc(C(F)C(F)(C(F)(F)F)C(F)(F)F)n1C` (stereo not shown) [b-57], the “insecticidal rate or food intake as compared with the control plot” value is listed as “insecticidal rate of 100% for Mythimna separata or a food intake of 10% or less”.

For the compound `CCS(=O)(=O)c1cc(-c2ccccc2F)cnc1-c1ncc(C(F)(F)C(F)(F)C(F)(F)F)n1C` [b-58], the “insecticidal rate or food intake as compared with the control plot” value is listed as “insecticidal rate of 100% for Mythimna separata or a food intake of 10% or less”.
